Literature values in patent publication US20190231691A1, “Biopharma Application Of Micell Technology” (Micell Technologies, Inc., priority 2015, published 2019).

Conditions: in vivo

bioavailability: less than 14%
SMILES: CO[C@H]1C[C@@H]2CC[C@@H](C)[C@@](O)(O2)C(=O)C(=O)N2CCCC[C@H]2C(=O)O[C@H]([C@H](C)C[C@@H]2CC[C@@H](O)[C@H](OC)C2)CC(=O)[C@H](C)/C=C(\C)[C@@H](O)[C@@H](OC)C(=O)[C@H](C)C[C@H](C)/C=C/C=C/C=C/1C [rapamycin]
